Experimental findings from publication PMC3196276 (2011) are described below.

In experiment [1] the test system is U25C (3WJ site mutant) (RNA, riboswitch) GGAGAGUAGAUGAUUCGCGUUAAGCGUGUGUGAAUGGGAUGUCGUCACACAACGAAGCGAGAGCGCGGUGAAUCAUUGCAUCCGCUCCA
Description: ITC. The following applies: 6 mM MgCl2, 100 mM NaCl, 10 mM KCl; 10 mM HEPES pH 8.0, 1 mM DTT, 25 °C.

In experiment [2] the test system is U7C (PK site mutant) (RNA, riboswitch) GGAGAGCAGAUGAUUCGCGUUAAGUGUGUGUGAAUGGGAUGUCGUCACACAACGAAGCGAGAGCGCGGUGAAUCAUUGCAUCCGCUCCA
Description: ITC. The settings on record: 6 mM MgCl2, 100 mM NaCl, 10 mM KCl; 10 mM HEPES pH 8.0, 1 mM DTT, 25 °C.

Experiment [3] has as its system Smu wild type (wt) THF riboswitch aptamer, crystallization sequence (RNA, riboswitch) GGAGAGUAGAUGAUUCGCGUUAAGUGUGUGUGAAUGGGAUGUCGUCACACAACGAAGCGAGAGCGCGGUGAAUCAUUGCAUCCGCUCCA
The following applies: apparent; ligand not given, THF from context.

Turning to `Nc1nc2c(c(=O)[nH]1)N(C=O)[C@@H](CNc1ccc(C(=O)N[C@@H](CCC(=O)O)C(=O)O)cc1)CN2`, the figures for the dissociation constant (KD) in experiment [1] and in experiment [2] were 18 ± 1 µM and 23 ± 2 µM, respectively.
In the case of `Nc1nc2c(c(=O)[nH]1)N[C@@H](CNc1ccc(C(=O)N[C@@H](CCC(=O)O)C(=O)O)cc1)CN2`, the “KD,app” value in experiment [3] turned out to be 18 ± 1 µM.

As usually defined, the KD is the concentration at which binding is half-saturated. The low end stands for a tighter complex, the high end for a looser complex.
